Measurements published in patent publication US6627399B1, “RNA polymerase transcription promoters and nucleic acid sequencing method” (Riken, priority 1998, dated 2003).

Biological target: wild-type T7 RNA polymerase (Escherichia phage T7, UniProt P00573)
Assay: Accelerating effect of polyamines on in vitro transcription activity of T7 RNA polymerase ([α32P]UTP incorporation, gel electrophoresis)
Type: biochemical, bacteriophage T7
Design: key: fold radioactivity relative to blank without polyamine
Settings: polyamine final concentration 2 mM, 37° C. for one hour; amplification of radioactivity of transcription products compared to a blank without polyamine
Description: An activation level was evaluated by observing an effect of a polyamine on in vitro transcription activation using bacteriophage T7 RNA polymerase in the reaction system below.
Each polyamine was added to 10 μl of reaction solution (40 mM Tris-Cl, pH 8.0, 8 mM MgCl2, 5 mM DTT, 200 µM GMP, wild-type T7 RNA polymerase 5U, 0.2 μCi [α32P]UTP, dsDNA produced by cleavage of pBluescript [Stratagene] by a restriction enzyme Pvull 500 μM as rNTP template DNA) to yield a final concentration of 2 mM, then reacted at 37° C. for one hour. After the reaction, 10 μl of formamide loading dye (98% formamide, 10 mM EDTA) was added to the products, heated at 90° C. for modification, subsequently analyzed by electrophoresis on 4% acrylamide gel. The gel was dried after the electrophoresis, observed for radioactivity contained in the transcription products using the BAS2000 image analysis system (Fujiphotofilm Inc.), and evaluated for activation level of each polyamine.
Data is given in amplification of radioactivity compared to a blank in which a reaction is carried out in parallel in the same condition excepting no polyamine was added.

wild-type T7 RNA polymerase, sequence (P00573 whole entry): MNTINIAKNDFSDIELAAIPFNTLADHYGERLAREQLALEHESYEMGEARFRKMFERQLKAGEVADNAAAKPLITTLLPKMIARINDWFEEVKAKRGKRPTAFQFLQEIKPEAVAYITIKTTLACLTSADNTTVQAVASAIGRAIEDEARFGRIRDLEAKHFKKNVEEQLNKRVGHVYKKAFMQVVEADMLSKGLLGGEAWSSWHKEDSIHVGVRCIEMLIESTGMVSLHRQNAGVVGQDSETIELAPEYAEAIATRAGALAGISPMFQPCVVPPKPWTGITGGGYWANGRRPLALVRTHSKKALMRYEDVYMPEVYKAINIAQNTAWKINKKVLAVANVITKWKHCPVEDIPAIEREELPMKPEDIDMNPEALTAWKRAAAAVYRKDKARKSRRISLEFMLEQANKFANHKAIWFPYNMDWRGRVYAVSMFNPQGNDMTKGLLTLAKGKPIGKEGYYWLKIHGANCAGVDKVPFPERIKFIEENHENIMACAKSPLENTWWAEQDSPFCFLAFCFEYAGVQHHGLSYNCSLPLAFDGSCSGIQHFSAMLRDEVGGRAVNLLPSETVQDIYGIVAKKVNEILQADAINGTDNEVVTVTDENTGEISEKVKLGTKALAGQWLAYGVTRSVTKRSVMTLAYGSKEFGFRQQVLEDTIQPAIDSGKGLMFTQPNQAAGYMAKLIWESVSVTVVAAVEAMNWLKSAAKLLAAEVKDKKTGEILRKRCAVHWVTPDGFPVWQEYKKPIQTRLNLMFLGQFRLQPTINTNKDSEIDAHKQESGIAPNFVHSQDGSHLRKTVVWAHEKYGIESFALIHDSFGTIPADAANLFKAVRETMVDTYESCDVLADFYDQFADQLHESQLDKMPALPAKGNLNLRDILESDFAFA

SMILES | Activity Level
CCNCCCCNCCCCNCCCCNCC [Compound 15a, 1,14-di(ethylamino)-5,10-diazatetradecane] | 1.21
CCNCCCCNCCCCCNCCCCNCC [Compound 15b, 1,15-di(ethylamino)-5,11-diazapentadecane] | 1.18
CCNCCCCNCCCCCCNCCCCNCC [Compound 15c, 1,16-di (ethylamino)-5,12-diazahexadecane] | 1.12
CCNCCCCNCCCCCCCNCCCCNCC [Compound 15d, 1,17-di(ethylamino)-5,13-diazaheptadecane] | 1.29
CCNCCCCNCCCCCCCCNCCCCNCC [Compound 15e, 1, 18-di(ethylamino)-5,14-diazaoctadecane] | 2.52
CCNCCCCNCCCCCCCCCNCCCCNCC [Compound 15f, 1,19-di(ethylamino)-5,15-diazanonadecane] | 1.18
CCNCCCCNCCCCCCCCCCNCCCCNCC [Compound 15g, 1,20-di(ethylamino)-5,16-diazaeicosane] | 2.01
CCNCCCNCCCCN [Compound 18, 1-ethylamino-8-amino-4-azaoctane] | 1.12
NCCCCNCCCCCCCCNCCCCN [Compound 19, 1,18-diamino-5,14-diazaoctadecane] | 1.41
CCN(CCCCCCCCN(CC)S(=O)(=O)c1ccc(C)cc1)S(=O)(=O)c1ccc(C)cc1 [Compound 20, N1,N8-di(p-toluenesulfonyl)-di(ethylamino)-octane] | 1.11
CCNCCCCCCCCNCC [Compound 21, N1,N8di(ethylamino)-octane] | 4.91
CCN(CCCCCN(CC)S(=O)(=O)c1ccc(C)cc1)S(=O)(=O)c1ccc(C)cc1 [Compound 22, N1,N5-di(p-toluenesulfonyl)-di(ethylamino)pentane] | 1.43
CCNCCCCCNCC [Compound 23, N1,N5-di(ethylamino)pentane] | 3.52
